Data as given in patent US20060241183A1, “Compositions and methods of using D-DOPA to treat Parkinson's disease” (priority 2004, published 2006).

How the values were obtained:
[1] = tested on: urinary excretion of dopamine; settings: D- and L-DOPA 50 mg/kg; cited from earlier work
[2] = target: T1, L-amino acid decarboxylase (Homo sapiens, UniProt P20711); settings: cited from earlier work
T1 sequence (P20711 1-480): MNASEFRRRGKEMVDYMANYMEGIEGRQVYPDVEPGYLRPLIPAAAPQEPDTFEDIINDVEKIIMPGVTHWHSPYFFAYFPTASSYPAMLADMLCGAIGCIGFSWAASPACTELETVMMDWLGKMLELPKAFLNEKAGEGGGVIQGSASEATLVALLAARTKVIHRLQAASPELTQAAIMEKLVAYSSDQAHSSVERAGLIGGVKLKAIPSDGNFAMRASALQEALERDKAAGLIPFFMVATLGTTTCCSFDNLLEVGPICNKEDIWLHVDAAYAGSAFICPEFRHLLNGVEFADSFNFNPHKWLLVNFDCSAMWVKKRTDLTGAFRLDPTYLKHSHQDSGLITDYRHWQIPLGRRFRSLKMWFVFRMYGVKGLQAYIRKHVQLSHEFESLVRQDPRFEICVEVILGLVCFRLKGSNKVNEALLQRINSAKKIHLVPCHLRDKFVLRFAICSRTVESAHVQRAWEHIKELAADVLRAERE

[3] = tested on: striatal concentration of dopamine, DOPAC and HVA; test: Striatal dopamine, DOPAC and HVA after intragastric D- or L-DOPA plus carbidopa in rats with unilateral substantia nigra lesions; assay type: in vivo, male Sprague-Dawley Rats; settings: for time for formation of dopamine in the striatum to reach its maximum concentration: after intragastric administration, inferred from DOPAC and HVA in lesion striata; for time to achieve maximum concentration of dopamine in the central nervous system: following intragastric administration; for increase of dopamine and its metabolites in the intact striata, D- versus L-DOPA / time at which dopamine content in the intact striata peaked / change of dopamine concentrations in the lesion striata: intragastric administration; for change of concentrations of DOPAC and HVA in the lesion striata: one hour after treatment
Description: The present example illustrates the efficacy of the administration of D-DOPA of L-DOPA in vivo. In order to show the effectiveness of D-DOPA for increasing striatal dopamine content, male Sprague-Dawley Rats (Zivic-Miller, Allison Park, Pa.) weighing 300 to 400 grams were used. At least four weeks prior to the experiments, unilateral Substantia Nigra lesions were produced with intranigral administration of 6-hydroxydopamine according to the procedures set forth in Ungerstedt, Acta Physiol. Scand. (Suppl.) 367, 69 (1971).
The extent of unilateral Substantia Nigra lesions was tested by measuring apomorphine simulated rotation according to the procedures described in Understedt, supra, 1971; Freed et al. Ann. Neurol. 8, 510 (1980).
Either D- or L-DOPA was intragastrically administered to the rats in combination with carbidopa at doses of 50 mg/kg body weight of D-DOPA or L-DOPA and 5 mg/kg body weight of carbidopa, suspended in sterile water, to provide a pharmaceutically acceptable solution for administration. D- or L-DOPA was intragastrically administered to groups of five rats, which were sacrificed one or two hours after treatment. The left (intact) and right (lesioned) striata of these rats were excised and analyzed separately for the content of dopamine and its metabolites 3,4-dihydroxyphenylacetic acid (DOPAC) and homovanillic acid (HVA), according to the procedure as set forth in Karoum, Neuromethods, Vol. 2 (G. B. Baker, A. A. Boulton and J. M. Baker eds.), The Humana Press, Inc., New Jersey, page 305, 1985 (referred to hereafter as “Karoum, Neuromethods”).

circling = settings: rats with unilateral 6-hydroxydopamine lesion; cited from earlier work
[4] = tested on: striatal dopamine and its metabolites (DOPAC and HVA); test: Striatal dopamine, DOPAC and HVA after intraventricular administration of L-DOPA, D-DOPA or DHPPA; assay type: in vivo, Sprague-Dawley rats; settings: for Striatal DOPAC / Striatal Dopamine / Striatal HVA: intraventricular, 10 μl, 2 h after treatment, mean ± S.E.M.
Method: The present example illustrates the possible involvement of DHPPA in the formation of dopamine from D-DOPA. […] In an attempt to examine an alternate pathway, four groups of Sprague-Dawley rats weighing 120-150 grams with cannulae permanently implanted into their lateral ventricles, according to the procedure described in Robinson et al., Physiol. Behav. 4, 123-124, (1969), were used. One group received 10 μl. of saline into the ventricles. The second, third and fourth groups received, intraventricularly, 200.μ.g of L-DOPA, D-DOPA and 3,4-dihydroxyphenylpyruvic acid (DHPPA) in 10 μl of saline, respectively. The rats were sacrificed two hours after treatment and their striata removed and analyzed. Striatal concentrations of dopamine, DOPAC and HVA were measured by massfragmentography according to the procedure set forth in Karoum, Neuromethods.

[5] = tested on: striatal dopamine or its metabolites; test: Repeated intragastric administration of DHPPA plus carbidopa, striatal dopamine and metabolites; assay type: in vivo; settings: concluded from repeated intragastric administration
hypothalamic dopamine = test: Hypothalamic dopamine and metabolites after intragastric D- and L-DOPA; assay type: in vivo; settings: after intragastric administration
Description: DHPPA can be formed from D-DOPA by either of two pathways, that is, direct transamination, or through deamination by D-amino acid oxidase, an enzyme widely distributed in the brain. The pattern of changes of striatal dopamine and its metabolites observed after intragastric administration of D- and L-DOPA are similar to those observed in the hypothalamus.

SMILES | reduction of urinary excretion of dopamine following D-DOPA compared with co-administration with L-DOPA [1] | substrate for L-amino acid decarboxylase [2] | time for formation of dopamine in the striatum to reach its maximum concentration [3] | time to achieve maximum concentration of dopamine in the central nervous system [3] [h] | increase of dopamine and its metabolites in the intact striata, D- versus L-DOPA [3] | time at which dopamine content in the intact striata peaked [3] | change of dopamine concentrations in the lesion striata [3] | change of concentrations of DOPAC and HVA in the lesion striata [3] | induction of circling (circling) | Striatal DOPAC [4] [ng/mg protein] | Striatal Dopamine [4] [ng/mg protein] | Striatal HVA [4] [ng/mg protein] | crossing of the blood brain barrier [5] | elevations of dopamine and DOPAC compared with D- or L-DOPA ([4]; intraventricular administration) | increases in hypothalamic DOPAC and HVA, L-DOPA versus D-DOPA (hypothalamic dopamine)
C[C@@](Cc1ccc(O)c(O)c1)(NN)C(=O)O [Carbidopa, carbidopa] | to a far greater degree |  |  |  |  |  |  |  |  |  |  |  |  |  | 
N[C@H](Cc1ccc(O)c(O)c1)C(=O)O [D-DOPA] |  | not a substrate | within one hour | 2 | to about the same extent | two hours | Neither D- nor L-DOPA increased dopamine concentrations | markedly increased | can induce circling | 19 ± 0.92 | 116 ± 5.1 | 4.8 ± 0.50 |  |  | 
O=C(O)C(=O)Cc1ccc(O)c(O)c1 [DHPPA, 3,4-dihydroxyphenylpyruvic acid] |  |  |  |  |  |  |  |  |  | 96 ± 16.6 | 140 ± 11.0 | 23.3 ± 3.53 | does not easily cross the blood brain barrier | larger elevations | 
N[C@@H](Cc1ccc(O)c(O)c1)C(=O)O [L-DOPA] |  |  | within one hour | 1 | to about the same extent | one hour | Neither D- nor L-DOPA increased dopamine concentrations | markedly increased |  | 59 ± 9.49 | 120 ± 7.4 | 22.2 ± 1.60 |  |  | considerably higher
